From US11566022B2, “3-(5-methoxy-1-oxoisoindolin-2-yl)piperidine-2,6-dione derivatives and uses thereof” (NOVARTIS AG, priority 2019, dated 2023)

Target: HiBit-WIZ fusion protein (Homo sapiens, UniProt O95785+Q96SW2)
Test: Quantification of WIZ protein levels in HiBit tag fusion protein assay (WIZ HiBit assay in 293T cells)
Type: cell-based
Design: Dmax: dose or concentration left out as unconfirmed
Details: for % degradation of WIZ (100-Amax) / Dmax: 100 minus Amax; for % degradation of WIZ (100-Amax): at 25 uM; for % degradation of WIZ (100-Amax) / WIZ Amax / Dmax / remaining activity at up to 25 µM: 293T cells; for WIZ Amax / remaining activity at up to 25 µM: DMSO-normalized, curve-fitted percentage of WIZ-HiBit remaining at 25 uM; for Dmax / remaining activity at up to 25 µM: HEK-293T; for Dmax: read-out: % degradation of WIZ (100-Amax); for remaining activity at up to 25 µM: read-out: WIZ Amax; for DC50: read-out: WIZ AC50
[1] = WIZ HiBit assay in 293T cells, 10-point, 5-fold dose response, highest concentration 25 μM, about 18 hours

Sequence of HiBit-WIZ fusion protein (O95785 whole entry, the tested form may be a part): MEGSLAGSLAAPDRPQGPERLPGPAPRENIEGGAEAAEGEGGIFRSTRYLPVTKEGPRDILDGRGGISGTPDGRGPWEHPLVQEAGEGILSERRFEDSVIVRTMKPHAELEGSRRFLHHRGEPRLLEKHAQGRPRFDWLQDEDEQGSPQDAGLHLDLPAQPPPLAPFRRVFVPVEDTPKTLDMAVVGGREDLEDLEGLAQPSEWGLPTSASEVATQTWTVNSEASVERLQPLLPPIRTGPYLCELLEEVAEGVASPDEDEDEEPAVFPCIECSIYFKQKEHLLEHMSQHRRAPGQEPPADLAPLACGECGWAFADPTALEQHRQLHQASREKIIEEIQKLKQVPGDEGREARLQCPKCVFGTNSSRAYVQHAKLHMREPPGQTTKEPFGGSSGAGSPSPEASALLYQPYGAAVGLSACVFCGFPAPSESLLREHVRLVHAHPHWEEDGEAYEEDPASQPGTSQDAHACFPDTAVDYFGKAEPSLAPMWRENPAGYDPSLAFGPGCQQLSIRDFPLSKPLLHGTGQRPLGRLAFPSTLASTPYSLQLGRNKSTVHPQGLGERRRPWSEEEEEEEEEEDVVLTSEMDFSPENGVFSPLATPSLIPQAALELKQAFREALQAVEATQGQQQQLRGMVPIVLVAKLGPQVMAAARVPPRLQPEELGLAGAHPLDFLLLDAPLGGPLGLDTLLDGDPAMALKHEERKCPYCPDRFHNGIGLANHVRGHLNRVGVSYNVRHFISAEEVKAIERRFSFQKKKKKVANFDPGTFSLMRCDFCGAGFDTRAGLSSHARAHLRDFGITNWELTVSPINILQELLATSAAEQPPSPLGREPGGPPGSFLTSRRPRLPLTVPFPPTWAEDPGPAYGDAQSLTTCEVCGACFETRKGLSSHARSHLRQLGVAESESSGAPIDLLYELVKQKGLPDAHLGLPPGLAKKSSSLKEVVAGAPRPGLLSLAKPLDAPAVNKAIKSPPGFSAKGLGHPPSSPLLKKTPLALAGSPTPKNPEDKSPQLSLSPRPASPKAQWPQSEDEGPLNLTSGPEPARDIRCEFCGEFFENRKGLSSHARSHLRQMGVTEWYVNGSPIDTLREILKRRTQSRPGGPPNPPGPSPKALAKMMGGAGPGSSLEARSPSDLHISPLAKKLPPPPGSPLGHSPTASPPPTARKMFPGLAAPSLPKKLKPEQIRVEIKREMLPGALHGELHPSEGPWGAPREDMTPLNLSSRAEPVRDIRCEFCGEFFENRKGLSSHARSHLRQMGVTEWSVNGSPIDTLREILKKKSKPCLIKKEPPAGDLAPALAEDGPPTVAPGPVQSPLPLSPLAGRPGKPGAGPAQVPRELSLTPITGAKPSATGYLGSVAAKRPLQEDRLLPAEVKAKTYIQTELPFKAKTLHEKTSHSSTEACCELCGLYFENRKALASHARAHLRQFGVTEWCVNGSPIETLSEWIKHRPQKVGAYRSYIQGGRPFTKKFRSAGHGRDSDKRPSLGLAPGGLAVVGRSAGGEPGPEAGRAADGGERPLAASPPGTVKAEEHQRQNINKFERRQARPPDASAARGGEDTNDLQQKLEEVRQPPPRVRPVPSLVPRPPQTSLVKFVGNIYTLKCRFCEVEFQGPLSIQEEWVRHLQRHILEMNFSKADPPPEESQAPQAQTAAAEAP
Sequence of HiBit-WIZ fusion protein (Q96SW2 whole entry, the tested form may be a part): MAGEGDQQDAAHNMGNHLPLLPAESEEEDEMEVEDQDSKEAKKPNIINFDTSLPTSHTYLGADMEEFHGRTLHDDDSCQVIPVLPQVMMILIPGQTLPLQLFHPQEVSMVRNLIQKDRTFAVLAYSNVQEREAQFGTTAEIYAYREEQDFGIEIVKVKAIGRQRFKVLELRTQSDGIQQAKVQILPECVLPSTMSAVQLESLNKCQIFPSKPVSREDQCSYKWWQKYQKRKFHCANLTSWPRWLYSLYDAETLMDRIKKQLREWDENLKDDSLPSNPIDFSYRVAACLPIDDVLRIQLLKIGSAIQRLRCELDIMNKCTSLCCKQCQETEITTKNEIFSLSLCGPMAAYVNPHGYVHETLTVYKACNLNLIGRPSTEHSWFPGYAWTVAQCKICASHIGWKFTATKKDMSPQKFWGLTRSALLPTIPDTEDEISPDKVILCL
Sequence of HiBit-WIZ fusion protein (Q16531 whole entry partner, the tested form may be a part): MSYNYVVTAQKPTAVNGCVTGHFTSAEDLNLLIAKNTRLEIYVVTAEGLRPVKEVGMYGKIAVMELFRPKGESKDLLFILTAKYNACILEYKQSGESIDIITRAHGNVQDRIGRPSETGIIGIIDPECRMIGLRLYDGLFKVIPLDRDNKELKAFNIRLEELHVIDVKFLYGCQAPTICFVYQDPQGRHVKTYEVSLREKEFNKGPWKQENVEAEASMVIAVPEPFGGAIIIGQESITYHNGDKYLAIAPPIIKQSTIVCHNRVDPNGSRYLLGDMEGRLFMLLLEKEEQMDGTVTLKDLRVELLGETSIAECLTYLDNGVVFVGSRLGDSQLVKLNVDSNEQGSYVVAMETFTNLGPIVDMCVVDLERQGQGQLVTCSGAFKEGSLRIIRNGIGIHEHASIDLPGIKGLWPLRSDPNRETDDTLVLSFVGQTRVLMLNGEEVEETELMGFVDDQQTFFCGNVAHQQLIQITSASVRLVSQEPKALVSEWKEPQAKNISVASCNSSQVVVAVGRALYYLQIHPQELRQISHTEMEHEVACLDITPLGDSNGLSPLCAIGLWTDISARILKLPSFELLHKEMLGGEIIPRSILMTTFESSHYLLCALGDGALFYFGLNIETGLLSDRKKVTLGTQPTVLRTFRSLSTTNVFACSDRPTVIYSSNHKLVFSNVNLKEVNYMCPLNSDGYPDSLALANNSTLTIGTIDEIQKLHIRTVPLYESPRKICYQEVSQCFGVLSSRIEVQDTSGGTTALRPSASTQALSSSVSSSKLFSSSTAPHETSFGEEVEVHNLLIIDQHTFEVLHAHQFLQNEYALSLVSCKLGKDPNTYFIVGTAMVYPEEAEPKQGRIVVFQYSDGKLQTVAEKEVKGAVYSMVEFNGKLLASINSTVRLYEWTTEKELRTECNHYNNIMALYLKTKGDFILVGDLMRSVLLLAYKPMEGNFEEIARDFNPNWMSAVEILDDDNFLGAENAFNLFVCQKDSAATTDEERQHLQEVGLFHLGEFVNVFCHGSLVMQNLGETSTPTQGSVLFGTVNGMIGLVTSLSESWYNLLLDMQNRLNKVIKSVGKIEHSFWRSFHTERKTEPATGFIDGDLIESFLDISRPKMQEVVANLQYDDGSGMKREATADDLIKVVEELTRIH

Row | Structure (SMILES) | Dmax [%] | remaining activity at up to 25 µM [%] | DC50 [1] [nM] | % degradation of WIZ (100-Amax) [%] | WIZ Amax [%] | AC50 [1] [nM]
1 | O=C1CCC(N2Cc3cc(OC[C@H]4CCCCN4CC4CC(O)C4)ccc3C2=O)C(=O)N1 (stereo partly drawn) [I-141a, I-141b, 3-(5-(((R)-1-(((1r,3R)-3-hydroxycyclobutyl)methyl)piperidin-2-yl)methoxy)-1-oxoisoindolin-2-yl)piperidine-2,6-dione and 3-(5-(((R)-1-(((1s,3S)-3-hydroxycyclobutyl)methyl)piperidin-2-yl)methoxy)-1-oxoisoindolin-2-yl)piperidine-2,6-dione] | – | – | – | 72.36 | 27.64 | 2460
2 | Cc1cc(O)cc(C(=O)N2CCCC[C@H]2COc2ccc3c(c2)CN(C2CCC(=O)NC2=O)C3=O)c1 (some centres unmarked) [Compound I-72hi] | 13.8 | 86.2 | > 25000 | – | – | –
3 | O=C1CCC(N2Cc3cc(OC[C@H]4CCCCN4Cc4ccc(C(=O)N5CCCC5)cc4)ccc3C2=O)C(=O)N1 (some centres unmarked) [Compound I-50bs] | 94.5 | 5.5 | 18 | – | – | –
4 | CCN1CCC(F)(F)CC1COc1ccc2c(c1)CN(C1CCC(=O)NC1=O)C2=O (single isomer, unassigned) [I-252 (Isomer 2), 3-(5-((1-ethyl-4,4-difluoropiperidin-2-yl)methoxy)-1-oxoisoindolin-2-yl)piperidine-2,6-dione] | – | – | 11 | 77.1 | 22.9 | –
5 | CC(C)N1CCC(CC(=O)N2CCCC[C@H]2COc2ccc3c(c2)CN(C2CCC(=O)NC2=O)C3=O)CC1 (some centres unmarked) [Compound I-72fe] | 18.5 | 81.5 | > 25000 | – | – | –
6 | CC(C)(C)OC(=O)NC1(CN2CCCC[C@@H]2COc2ccc3c(c2)CN(C2CCC(=O)NC2=O)C3=O)CCCC1 (some centres unmarked) [Compound I-50cf] | 38.1 | 61.9 | > 25000 | – | – | –
7 | CC#CCCOc1ccc(C(=O)N2CCCC[C@H]2COc2ccc3c(c2)CN(C2CCC(=O)NC2=O)C3=O)cc1 (some centres unmarked) [Compound I-72ew] | 54.9 | 45.1 | 14600 | – | – | –
8 | N#Cc1ccc(CCC(=O)N2CCCC[C@H]2COc2ccc3c(c2)CN(C2CCC(=O)NC2=O)C3=O)cc1 (some centres unmarked) [Compound I-72gh] | 10.9 | 89.1 | > 25000 | – | – | –
9 | O=C1CCC(N2Cc3cc(OC[C@@H]4CCCCN4C(=O)CCn4c(=O)oc5ccccc54)ccc3C2=O)C(=O)N1 (some centres unmarked) [Compound I-72jb] | 0.3 | 99.7 | > 25000 | – | – | –
10 | O=C1CCC(N2Cc3cc(OC[C@@H]4CCCCN4C(=O)c4ccc(Cl)c(I)c4)ccc3C2=O)C(=O)N1 (some centres unmarked) [Compound I-72ad] | 52.8 | 47.2 | 17400 | – | – | –
11 | Cc1nc[nH]c1CN1CCCC[C@@H]1COc1ccc2c(c1)CN(C1CCC(=O)NC1=O)C2=O (some centres unmarked) [Compound I-50cs] | 71.1 | 28.9 | 4410 | – | – | –
12 | O=C1CCC(N2Cc3cc(OC[C@@H]4CCCCN4C(=O)[C@H]4CCOC4)ccc3C2=O)C(=O)N1 (some centres unmarked) [Compound I-72fn] | 2.6 | 97.4 | > 25000 | – | – | –
13 | CCc1ncc(C(=O)N2CCCC[C@H]2COc2ccc3c(c2)CN(C2CCC(=O)NC2=O)C3=O)s1 (some centres unmarked) [Compound I-72jf] | 34.2 | 65.8 | > 25000 | – | – | –
14 | O=C1CCC(N2Cc3cc(OC[C@@H]4CCCCN4C(=O)c4ccccc4Cn4cncn4)ccc3C2=O)C(=O)N1 (some centres unmarked) [Compound I-72jx] | 6.1 | 93.9 | > 25000 | – | – | –
15 | O=C1CCC(N2Cc3cc(OC[C@@H]4CCCCN4C(=O)c4ncn(-c5ccccc5)n4)ccc3C2=O)C(=O)N1 (some centres unmarked) [Compound I-72dt] | 47.2 | 52.8 | > 25000 | – | – | –
16 | O=C1CCC(N2Cc3cc(OC[C@H]4CCCCN4CC4CCN(C(=O)OCc5ccccc5)CC4)ccc3C2=O)C(=O)N1 (some centres unmarked) [Compound I-50cl] | 77.7 | 22.3 | 644 | – | – | –
17 | N#Cc1cc(CN2CCCC[C@H]2COc2ccc3c(c2)CN(C2CCC(=O)NC2=O)C3=O)ccn1 (some centres unmarked) [Compound I-50bl] | 17.6 | 82.4 | > 25000 | – | – | –
18 | N#Cc1ccn2cc(CN3CCCC[C@@H]3COc3ccc4c(c3)CN(C3CCC(=O)NC3=O)C4=O)nc2c1 (some centres unmarked) [Compound I-50dt] | 67 | 33 | 2740 | – | – | –
19 | O=C1CCC(N2Cc3cc(OC[C@@H]4CCCCN4Cc4cccc(O)c4O)ccc3C2=O)C(=O)N1 (some centres unmarked) [Compound I-50bx] | 56.4 | 43.6 | 21000 | – | – | –
20 | CC(C)N1CCC(CN2CCCC[C@H]2COc2ccc3c(c2)CN(C2CCC(=O)NC2=O)C3=O)CC1 (some centres unmarked) [Compound I-50cb] | 74.5 | 25.5 | 5800 | – | – | –
21 | O=C1CCC(N2Cc3cc(OC[C@@H]4CCCCN4Cc4ccnc5[nH]ccc45)ccc3C2=O)C(=O)N1 (some centres unmarked) [Compound I-50cx] | 92.6 | 7.4 | 143 | – | – | –
22 | O=C1CCC(N2Cc3cc(OC[C@H]4CCCCN4Cc4cccc(Cn5cccn5)c4)ccc3C2=O)C(=O)N1 (some centres unmarked) [Compound I-50en] | 99.8 | 0.2 | 4 | – | – | –

Now from value to molecule, other results behind:

Row | Dmax [%] | remaining activity at up to 25 µM [%] | DC50 [1] [nM] | Structure (SMILES) | % degradation of WIZ (100-Amax) [%] | WIZ Amax [%] | AC50 [1] [nM]
23 | 21.5 | 78.5 | > 25000 | O=C1CCC(N2Cc3cc(OC[C@@H]4CCCCN4C(=O)c4cccc5cnccc45)ccc3C2=O)C(=O)N1 (some centres unmarked) [Compound I-72j] | – | – | –
24 | 88.9 | 11.1 | 0.52 | COc1ccc(CN2CCCC[C@@H]2COc2ccc3c(c2)CN(C2CCC(=O)NC2=O)C3=O)c(OC)c1 (stereo partly drawn) [Compound I-131, 3-(5-(((R)-1-(2,4-dimethoxybenzyl)piperidin-2-yl)methoxy)-1-oxoisoindolin-2-yl)piperidine-2,6-dione] | – | – | –
25 | 80.8 | 19.1 | 4.3 | O=C1CCC(N2Cc3cc(OC[C@H]4CCCCN4Cc4ccc(N5CCOCC5)nc4)ccc3C2=O)C(=O)N1 (stereo partly drawn) [Compound I-186, 3-(5-(((R)-1-((6-morpholinopyridin-3-yl)methyl)piperidin-2-yl)methoxy)-1-oxoisoindolin-2-yl)piperidine-2,6-dione] | – | – | –
26 | – | 89.7 | > 25000 | CCC(Oc1ccc2c(c1)CN(C1CCC(=O)NC1=O)C2=O)[C@@H]1CCCN1 (single isomer, unassigned) [Compound I-44] | 10.3 | – | –
27 | 75.2 | 24.9 | 20 | CCc1cc(CN2CCCC[C@@H]2COc2ccc3c(c2)CN(C2CCC(=O)NC2=O)C3=O)ccc1C1CCN(C(=O)OC(C)(C)C)CC1 (stereo partly drawn) [Compound I-155, Tert-butyl 4-(4-(((2R)-2-(((2-(2,6-dioxopiperidin-3-yl)-1-oxoisoindolin-5-yl)oxy)methyl)piperidin-1-yl)methyl)-2-ethylphenyl)piperidine-1-carboxylate] | – | – | –
28 | 93.2 | 6.8 | 47 | O=C1CCC(N2Cc3cc(OC[C@@H]4CCCCN4Cc4cnn(C5CCCCC5)c4)ccc3C2=O)C(=O)N1 (some centres unmarked) [Compound I-50p] | – | – | –
29 | 94.1 | 5.93 | 0.083 | CC(C)(C)c1ccc(CN2CCCC[C@@H]2COc2ccc3c(c2)CN(C2CCC(=O)NC2=O)C3=O)cc1 (some centres unmarked) [Compound I-158] | – | – | –
30 | 81.8 | 18.2 | 34 | O=C1CCC(N2Cc3cc(OC[C@H]4CCCCN4Cc4cccc5c4OCCO5)ccc3C2=O)C(=O)N1 (stereo partly drawn) [Compound I-135, 3-(5-(((R)-1-((2,3-dihydrobenzo[b][1,4]dioxin-5-yl)methyl)piperidin-2-yl)methoxy)-1-oxoisoindolin-2-yl)piperidine-2,6-dione] | – | – | –
31 | 78.3 | 21.7 | 500 | O=C1CCC(N2Cc3cc(OCC4CC(F)(F)CCN4)ccc3C2=O)C(=O)N1 (centres unmarked) [Compound I-251, 3-(5-((4,4-difluoropiperidin-2-yl)methoxy)-1-oxoisoindolin-2-yl)piperidine-2,6-dione] | – | – | –
32 | 55.7 | 44.3 | 490 | O=C1CCC(N2Cc3cc(OC[C@H]4CCCCN4Cc4ccc5[nH]cnc5c4)ccc3C2=O)C(=O)N1 (some centres unmarked) [Compound I-193] | – | – | –
33 | 20.6 | 79.4 | > 25000 | O=C1CCC(N2Cc3cc(OC[C@@H]4CCCCN4C(=O)c4cnnn4-c4ccccc4)ccc3C2=O)C(=O)N1 (some centres unmarked) [Compound I-72c] | – | – | –
34 | – | – | > 25000 | CCN1CCC[C@H]1C(C)Oc1ccc2c(c1)CN(C1CCC(=O)NC1=O)C2=O (single isomer, unassigned) [Compound I-25] | 46.6 | 53.4 | –
35 | 37.4 | 62.6 | – | O=C1CCC(N2Cc3cc(OC[C@H]4CCCCN4Cc4cccc(F)c4O)ccc3C2=O)C(=O)N1 (some centres unmarked) [Compound I-143] | – | – | –
36 | 87.1 | 12.9 | 540 | O=C1CCC(N2Cc3cc(OC[C@H]4CCCCN4CC4CC5(COC5)C4)ccc3C2=O)C(=O)N1 (stereo partly drawn) [Compound I-104, 3-(5-(((R)-1-((2-oxaspiro[3.3]heptan-6-yl)methyl)piperidin-2-yl)methoxy)-1-oxoisoindolin-2-yl)piperidine-2,6-dione] | – | – | –
37 | 78.3 | 21.7 | 784 | COc1ccccc1CN1CCCC[C@H]1COc1ccc2c(c1)CN(C1CCC(=O)NC1=O)C2=O (some centres unmarked) [Compound I-50d] | – | – | –
